Some results are limits rather than exact numbers.

For one test, the system named is Bacillus subtilis. The conditions noted are these: cited from earlier work.
Test [1] deals with breast cancer, mouse macrophage and human umbilical vein endothelial cells. On the set-up: method as in doi:10.17795/ajmb-33453. The conditions noted are these: cited from earlier work.
The subject of test [2] is CCL-1 (transformed mouse fibroblasts, NCTC clone 929). Kind of test: MTT dye-reduction cytotoxicity assay (ISO 10993-5). In kind it is cell-based. Conditions: solvent alone, 72 h, at least 70% of cells viable, n = 3. The source says:
(§1) The cell lines utilized in this study included the human tumor lines A-375 (malignant melanoma) and A-431 (non-melanoma epidermoid squamous skin carcinoma) as well as the models for non-tumorigenic cells—HaCaT (immortalized human keratinocytes) and CCL-1^TM (transformed mouse fibroblasts, NCTC clone 929). The first three cell lines were obtained from CLS Cell Lines Service (GmbH, Eppelheim, Germany). CCL-1^TM was purchased from the American Type Culture Collection (ATCC, Manassas, VA, USA). Cells were maintained in a controlled environment—sterile cell culture flasks in a CO2 incubator Panasonic MCO-18AC (Panasonic Healthcare co., ltd, Oizumi-Machi, Japan) at 37 °C and a humidified atmosphere containing 5% CO2. CCL-1 was cultured in MEM with 10% heat-inactivated horse serum and 2 mM L-glutamine, and the cell culture medium for the rest of the cell lines was DMEM-HG with 4.5 g/L glucose with the addition of 10% heat-inactivated fetal bovine serum and 4 mM L-glutamine. Pen/strep (concentration of penicillin G sodium 10^5 Units/L and of streptomycin sulfate 100 mg/L) was added to both culture media. The cell lines were maintained as an adherent monolayer in a log phase. The cells were sub-cultivated about 1–3 times per week after the monolayer reached 80–90% confluence. The medium was removed from the flask, and the cell monolayer was washed with 3–5 mL PBS. The cells were incubated with 0.05% EDTA in PBS for 8–10 min, followed by the next step where all cell lines were subjected to enzyme cell detachment. HaCaT and CCL-1 monolayers were detached with 1 mL solution of trypsin/EDTA (0.1%/0.05% for HaCaT and 0.25% (w/v)/0.53 mM for CCL-1) and incubated for 2–5 min at 37 °C (for HaCaT) or at room temperature (for CCL-1 cells), whereas Accutase® was used for A-375 and A-431 lines. The incubation lasted until the separation and dispersion of the cells in the monolayer were observed using light microscopy. In the end, all cell lines were resuspended in 10 mL medium and centrifuged for 3 min at 300× g. The cell pellet was resuspended in fresh medium and sub-cultivated at a seeding density of 1.0 × 10^4 cells/cm^2.
(§2) The MTT test was performed in order to determine the median inhibitory (IC50) and MTC concentrations of the solvents and PAC according to Annex C, ISO 10993-5 [2, 21]. Briefly, 100 µL of the cell suspension (1 × 10^5 cells/mL) were seeded per well in 96-well plates with a flat bottom. The cells were incubated for 24 h, allowing them to enter the log phase of their growth. On the 24th hour, the cells were treated with the solvents or CystiCran® solutions in concentrations ranging between 0.004% and 2% volume fraction (v/v) and incubated further for 72 h. The incubation periods are following the recommendations of the FDA guide for the use of ISO 10993-1 [1]. At the end of the incubation period, 10 µL of an MTT solution (5 mg/mL) were added to each well, and the plates were kept at 37 °C for 2 hours. Thereafter, the medium was aspirated, and the formed formazan crystals were dissolved in 100 μL/well of 2-propanol supplemented with 5% formic acid. The same solvent was used as a blank. Untreated cells were considered as a negative control. […] The absorption was measured at 540 nm (reference filter at 690 nm) on a microplate reader ELx800 (BioTek Instruments, Inc., Winooski, VT, Winooski, VT, USA).
(§3) The IC50 values from the MTT assay were evaluated with a non-linear regression analysis (Curve fit, GraphPad Prizm 6.01 software, GraphPad Software Inc., San Diego, CA, USA) using sigmoidal concentration–response curves. The cell viability is presented as a percentage of the untreated control. At least four wells were seeded for every concentration. Three independent assays were performed (n = 3).

Test [3] deals with HaCaT (immortalized human keratinocytes). Put plainly: MTT dye-reduction cytotoxicity assay (ISO 10993-5). In kind it is cell-based. Conditions: solvent alone, 72 h, at least 70% of cells viable, n = 3.
Text: as §1, §2, §3
For orientation: Tetrazolium dyes change colour on reduction, which living cells bring about.

Turning to `CN(C)C=O` [DMF, N,N-dimethylformamide], the tolerated concentration in the test with Bacillus subtilis was no less than 10 % v/v. Also, the “maximum tolerated concentration (MTC) / applicable concentration” value in test [1] is given as 0.1 % v/v. For the same compound, the “MTC (maximum tolerated concentration)” value in test [2] and in test [3] was 0.03 % (v/v) in each case.

The record behind these values is publication PMC8143291, “Cytotoxicity and Microbicidal Activity of Commonly Used Organic Solvents: A Comparative Study and Application to a Standardized Extract from Vaccinium macrocarpon” (Toxics, 2021).
